# According to the supplement of paper PMC11208160:
# Test: recombinant barcode read abundance after kanamycin selection (control-corrected) (log10(CPM+1)); higher = more efficient recombination; sequences stand for … in AGTGCAGAGAAAATCGGCCAGTTTTCTCTGCCTGCAGTCCGCATGCCGT…AGATTTATGCAGCGGACTGCCTTTCTCCCAAAGTGATAAACCGGACAGTATCATGGACCGGTTTTCCCGGTAATCCGTATTTGCAAGGTTGGTTTCACT; site = the 11-nt target
# Outline: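 This pooled E. coli screen matched targets with IS621 bridge RNA target-binding loops. Plating was done in duplicate on chloramphenicol/ampicillin LB agar as a control and on chloramphenicol/ampicillin/kanamycin plus 0.1 mM IPTG. Recombination efficiency reflects barcode counts at recombinant junctions as counts per million, averaged and control-corrected. The figures are log10(CPM+1).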
# 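Further: IS621 recombinase and bridge RNA in Escherichia coli cells.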
row,Sequence,recombinant barcode read abundance (log10)
1,ACGGGCTCTTGGGTTCTAACCTGTTGCTC (site CGACTTACTAT),0.164
2,TATTGGACTTGGGTTCTAACCTGTTGCAA (site TATTGGACTAT),0.218
3,TTAGGGACTTGGGTTCTAACCTGTTGCCT (site TTAGGGGCTAG),0.517
4,GAGTACTCTTGGGTTCTAACCTGTTGCTA (site GAGTACTCTTA),1.8
5,AGGATTACTTGGGTTCTAACCTGTTGCCT (site AGGATTACTAG),0.641
6,ACGTGCTCTTGGGTTCTAACCTGTTGCCT (site AAGTGCTCTAG),0.503
7,CTACTAGCTTGGGTTCTAACCTGTTGCAC (site CTACTAGCTCT),0.433
8,CTTCATTCTTGGGTTCTAACCTGTTGCCT (site CTTCATTCTAG),0.102
9,TCTGAAACTTGGGTTCTAACCTGTTGCTT (site TCTGAAACTAA),0.314
10,ATGCCCTCTTGGGTTCTAACCTGTTGCCT (site ATGGCCTCTAG),0.0962
11,AATCTGTCTTGGGTTCTAACCTGTTGCGT (site TAGCTGTCTAC),0.149
12,TTGAGGCCTTGGGTTCTAACCTGTTGCCT (site TTGAGGCCTAG),0.0305
13,TGAGCGGCTTGGGTTCTAACCTGTTGCCT (site TGAGTGGCTAG),0.0667
14,AGGTGCCCTTGGGTTCTAACCTGTTGCCG (site AAGTGCTCTCG),0.235
15,GGACCTCCTTGGGTTCTAACCTGTTGCTT (site GGACCTCCTAC),0.221
16,CCAAGGGCTTGGGTTCTAACCTGTTGCTG (site CCAAGGGCTCC),0.136
17,GACCGAGCTTGGGTTCTAACCTGTTGCCT (site GACCGAGCTAG),1.33
18,GATGGACCTTGGGTTCTAACCTGTTGCTA (site GATGGACCTTA),2.39
19,GTGGTACCTTGGGTTCTAACCTGTTGCAT (site ACACGGACTTA),0.0235
20,ACTAGTCCTTGGGTTCTAACCTGTTGCCA (site ACTAGTCCTTG),0.326
21,GAGCGAGCTTGGGTTCTAACCTGTTGCTG (site GAGCGAGCTCG),0.529
22,GCCATGACTTGGGTTCTAACCTGTTGCCT (site GCCATTACTAG),0

row,Sequence,recombinant barcode read abundance (log10)
1,TCCACATCTTGGGTTCTAACCTGTTGCCT (site TCCACAGCTAG),0.00992
2,GGGTCGGCTTGGGTTCTAACCTGTTGCGC (site GGGTCGGCTGC),1.88
3,CTTCACACTTGGGTTCTAACCTGTTGCAT (site CTTCACACTAT),1.7
4,GGGTCGGCTTGGGTTCTAACCTGTTGCGG (site GGGTCGGCTTC),0.609
5,TTCGAGTCTTGGGTTCTAACCTGTTGCGG (site TTCGAGTCTCC),1.91
6,TGATATTCTTGGGTTCTAACCTGTTGCCT (site TGATATTCTAG),0.245
7,TTCGCGCCTTGGGTTCTAACCTGTTGCCT (site TTCGCGCCTAG),0.134
8,CAGTCTACTTGGGTTCTAACCTGTTGCGT (site CAGTCTACTAC),0.308
9,AGTCCTTCTTGGGTTCTAACCTGTTGCAT (site AGTCCTTCTAT),0.878
10,AAAATCTCTTGGGTTCTAACCTGTTGCCT (site AAAATCTCTAG),0.708
11,CAGCATCCTTGGGTTCTAACCTGTTGCAG (site CAGCATCCTCT),1.11
12,TGGCCCTCTTGGGTTCTAACCTGTTGCTC (site TGGCCCTCTTA),0.0751
13,GATGTACCTTGGGTTCTAACCTGTTGCCT (site TATGTACCTAG),1.06
14,GGCAGTTCTTGGGTTCTAACCTGTTGCTT (site GGCAGGTCTAA),0.0765
15,TGTCCCGCTTGGGTTCTAACCTGTTGCCT (site TGTATCGCTAG),0.0575
16,GGATCCACTTGGGTTCTAACCTGTTGCCA (site GGATGCACTTG),0.0631
17,AGAACGTCTTGGGTTCTAACCTGTTGCCT (site AGAATGTCTAG),0.0292
18,GATACGCCTTGGGTTCTAACCTGTTGCCT (site GATACGGCTAG),0.167
19,CAGAGCACTTGGGTTCTAACCTGTTGCCT (site CAGAGCACTAG),1.2
20,TAGTCTTCTTGGGTTCTAACCTGTTGCGT (site AAGTATTCTAC),0.066
21,CATAGCCCTTGGGTTCTAACCTGTTGCAT (site CATAGTCCTAT),0.0192
22,CACATTCCTTGGGTTCTAACCTGTTGCCT (site GACATTCCTAG),0.141

row,Sequence,recombinant barcode read abundance (log10)
1,ACCAATGCTTGGGTTCTAACCTGTTGCCT (site ACCAATCCTAG),0.136
2,CGCTGTCCTTGGGTTCTAACCTGTTGCTT (site CGCTGGCCTAA),0.348
3,TATTCTACTTGGGTTCTAACCTGTTGCGA (site TATTCTACTGC),0.165
4,GTGTACCCTTGGGTTCTAACCTGTTGCGC (site GTGTACCCTTC),0.31
5,CTCTCCTCTTGGGTTCTAACCTGTTGCCT (site CTCTCCGCTAG),0.502
6,CTGTCGACTTGGGTTCTAACCTGTTGCCT (site CTATCCACTAG),0.0154
7,ACGCACTCTTGGGTTCTAACCTGTTGCCT (site ACGCACTCTAG),0.131
8,TATGTAGCTTGGGTTCTAACCTGTTGCCT (site TATGTAGCTAG),0.677
9,AGGAGCCCTTGGGTTCTAACCTGTTGCTG (site AGGAGCCCTAA),0.0752
10,ATGCCTACTTGGGTTCTAACCTGTTGCCT (site ATGCCAACTAG),0.0174
11,CATGACACTTGGGTTCTAACCTGTTGCCT (site CATGCCGCTAG),0.0486
12,TAATGGTCTTGGGTTCTAACCTGTTGCAT (site TAATGTTCTAT),0.065
13,GCAAGATCTTGGGTTCTAACCTGTTGCCT (site GCAAGATCTAG),1.36
14,CACTGGACTTGGGTTCTAACCTGTTGCCT (site CAGTGGACTAG),0.42
15,TATCTGACTTGGGTTCTAACCTGTTGCCT (site TATCTGACTAG),0.202
16,TGAATGTCTTGGGTTCTAACCTGTTGCCT (site TGAAGGTCTAG),0.0166
17,TAGACTACTTGGGTTCTAACCTGTTGCTT (site TAGACTACTCA),0.0933
18,CATTGCCCTTGGGTTCTAACCTGTTGCCT (site CCTTGCCCTAG),0.2
19,AGTGCGGCTTGGGTTCTAACCTGTTGCCT (site AGTGCGGCTAG),0.685
20,TATTCTACTTGGGTTCTAACCTGTTGCGA (site TATTCTACTCC),0.0347
21,GCACCTGCTTGGGTTCTAACCTGTTGCCT (site GCACCTGCTAG),1.61
22,CGAAGCTCTTGGGTTCTAACCTGTTGCCT (site CGGAGCTCTAG),0.108
